Source: paper PMC10916402, “Meropenem-ANT3310, a unique β-lactam-β-lactamase inhibitor combination with expanded antibacterial spectrum against Gram-negative pathogens including carbapenem-resistant Acinetobacter baumannii” (Antimicrobial Agents and Chemotherapy, 2024)
Values after ≈ are worked out from the molar mass of the structure shown. Where two headings read alike, the source gives them in different places.

Tests used:
[1] = test system: KPC-producing Enterobacterales (KPC-CRE); assay: organism not typed; assay type: cell-based
Procedure, shortened: (§1)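 Broth microdilution per CLSI and EUCAST in cation-adjusted Mueller Hinton broth, iron-depleted for cefiderocol; ANT3310 panels prepared fresh on test day. Isolates collected 2018–2019, identity confirmed by MALDI-TOF. MIC taken as first well without visible growth, interpreted with 2023 CLSI and EUCAST breakpoints.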

[2] = test system: OXA-producing Enterobacterales (OXA-CRE); assay: organism not typed; assay type: cell-based
Procedure, shortened: as §1

[3] = test system: A. baumannii clinical isolates; assay: Broth microdilution MIC, A. baumannii clinical isolates; assay type: cell-based, Acinetobacter baumannii; conditions: for MIC90: read-out: MIC90
Procedure, shortened: as §1

[4] = test system: A. baumannii ACC00445 (OXA-23); assay: MIC against the isolate used in the infection models; assay type: cell-based; conditions: Acinetobacter baumannii
Method: MICs for all antimicrobial agents were determined at IHMA by broth microdilution in accordance with both CLSI ([17]) and EUCAST ([18]) guidelines. Microtiter panels were prepared by IHMA and stored at −70°C in cation-adjusted Mueller Hinton broth (CAMHB) (Becton Dickinson). Iron-depleted CAMHB was used to test cefiderocol. Panels containing ANT3310 were prepared fresh on the day of testing. […] MIC values corresponded to the first well with no visible growth. Quality control testing was performed on each day of testing with E. coli ATCC 25922, P. aeruginosa ATCC 27853, K. pneumoniae ATCC 700603 and BAA 1705, and A. baumannii NCTC 13304. MICs were interpreted using 2023 CLSI ([17]) and EUCAST ([18]) BPs.

[5] = test system: carbapenem-resistant Acinetobacter baumannii (CRAB) clinical isolates; assay: Broth microdilution MIC, CRAB isolates; assay type: cell-based; conditions: 2018 Global collection, CRAB (MEM MICs >4 µg/mL), N 363
Procedure, shortened: as §1

[6] = 2018 Global collection, All A. baumannii, N 500

Compound: CN(C)c1cc(NC(=O)CNC(C)(C)C)c(O)c2c1C[C@H]1C[C@H]3[C@H](N(C)C)C(O)=C(C(N)=O)C(=O)[C@@]3(O)C(O)=C1C2=O [Tigecycline, tigecycline]
- MIC50 [1]: 1 µg/mL (≈ 1.71 µM)
- MIC90 [1]: 4 µg/mL (≈ 6.83 µM)
- MIC50 [2]: 2 µg/mL (≈ 3.41 µM)
- MIC90 [2]: 4 µg/mL (≈ 6.83 µM)
- Number of isolates inhibited at MIC of 0.25 µg/mL [3, 6]: 40
- Number of isolates inhibited at MIC of 0.5 µg/mL [3, 6]: 41
- Number of isolates inhibited at MIC of 1 µg/mL [3, 6]: 76
- Number of isolates inhibited at MIC of 2 µg/mL [3, 6]: 162
- Number of isolates inhibited at MIC of 4 µg/mL [3, 6]: 140
- Number of isolates inhibited at MIC of 8 µg/mL [3, 6]: 31
- Number of isolates inhibited at MIC of 16 µg/mL [3, 6]: 4
- Number of isolates inhibited at MIC of ≤0.125 µg/mL [3, 6]: 6
- MIC50 ([3]; Acinetobacter baumannii, 2018 Global collection, All A. baumannii, N 500, read-out: MIC50): 2 µg/mL (≈ 3.41 µM)
- MIC90 ([3]; Acinetobacter baumannii, 2018 Global collection, All A. baumannii, N 500): 4 µg/mL (≈ 6.83 µM)
- MIC90 ([3]; Acinetobacter baumannii, A. baumannii, one or both of the 2018/2019 collections): 4 µg/mL (≈ 6.83 µM)
- MIC [4]: 2 µg/mL (≈ 3.41 µM)
- Number of isolates inhibited at MIC of 0.5 µg/mL [5]: 7
- Number of isolates inhibited at MIC of 1 µg/mL [5]: 48
- Number of isolates inhibited at MIC of 2 µg/mL [5]: 146
- Number of isolates inhibited at MIC of 4 µg/mL [5]: 131
- Number of isolates inhibited at MIC of 8 µg/mL [5]: 28
- Number of isolates inhibited at MIC of 16 µg/mL [5]: 3
- MIC50 ([5]; Acinetobacter baumannii, read-out: MIC50): 2 µg/mL (≈ 3.41 µM)
- MIC90 ([5]; Acinetobacter baumannii, read-out: MIC90): 4 µg/mL (≈ 6.83 µM)
